The values that follow come from a melting point compilation (Tetko et al.; mined from patent text by program, amines drawn as free bases though some values may be those of a salt).

A value given as a limit tells only on which side of the number the result lay.

In general, melting point refers to the temperature, or range, at which the solid turns liquid.

Regarding `COc1cc(OCCN2CCOCC2)c(C=CC(=O)c2ccc(C(N)=O)cc2)cc1-c1cccs1`, the melting point lay within 183 to 184 °C.
As for `CCOC(=O)C(=CNC1CC1)C(=O)c1cc(Cl)c(F)c(Cl)c1F`, the figure is 71 to 74 °C; as for `CN1CC=C(c2cccc(C(F)(F)F)c2)n2ncc(C#N)c21`, 120 to 122 °C; as for `OCC(CO)(c1ccccc1)c1ccccc1`, 102 to 104 °C.
Under `CCOc1cc(O)cc2c1C(=O)N(CSc1ccccc1)S2(=O)=O` stands 204 to 205 °C; under `CCCCCCC(O)CC(=O)O` (stereo not given), 49.3 to 50 °C; under `CCOC(=O)C1=C(C)NC(c2cnc(NC(C)=O)s2)=NC1c1ccc(F)cc1Cl` (stereo not given), above 250 °C.
As for `NCCC1CCSc2[nH]c3ccccc3c21` (stereo not given), the figure is 136 to 138 °C.
Regarding `O=C(O)c1cn(C2CC2)c2c(F)c(N3CCOC(CN4CCNCC4)C3)c(F)cc2c1=O` (stereo not given), the melting point is 260 °C.
`Cc1cccc(NC(=O)NCC(=O)Nc2ccccc2C(=O)c2cccs2)c1` displayed a melting point of 208 to 210 °C.
As for `c1ccc(-c2ncc(-c3csc(-c4ccccc4)n3)cn2)cc1`, the figure is 214 to 216 °C; as for `COc1ccc2c(c1)C(=O)c1cccc(OC)c1-2`, 125 to 127 °C.
As for `COc1ccc(C(CC(C)=O)N2C(=O)c3cccc(N(S(C)(=O)=O)S(C)(=O)=O)c3C2=O)cc1OC` (stereo not given), the figure is 194 to 196 °C; as for `Cc1ccc(C)c(OCCCC(C)(C)C(=O)Nc2ccc(F)cc2F)c1`, 79 to 80 °C; as for `CCN(C)C(=O)c1cc(-c2ccccc2)oc1-c1ccc(OC)c(OC)c1`, 74 °C.
As for `CC1CC(c2ccccc2)(N(C)C)CCC1=O` (stereo not given), the figure is 50 °C; as for `COC(=O)[C@@H]1C[C@@H](Br)C(=O)[C@@H]2[C@@]3(C)C[C@@H](c4ccoc4)OC(=O)[C@H]3CC[C@]21C`, 170 to 173 °C; as for `CCOC(=O)COCc1nnc(S)o1`, 101 to 103 °C.
Take `Cc1cc(C(N)C(=O)O)ccc1O` (stereo not given): the melting point was 205 to 207 °C.
Under `CC12CC3(C)CC(c4ccc(O)cc4)(C1)CC(c1ccc(O)cc1)(C2)C3` stands 222 to 224 °C; under `Nc1n[nH]c2c(F)c(F)ccc12`, 183 °C.
`CCNC(=NS(=O)(=O)c1ccc(O)cc1)N1N=CCC1c1ccccc1` (stereo not given) yielded a melting point of 158 to 160 °C.
Compound `COc1ccc(S(=O)(=O)Nc2ncccc2/C=C/c2ccccc2)cc1` displayed a melting point of 152 to 155 °C.
Regarding `COc1ccc(-c2sc3cc(OC)ccc3c2C(=O)c2ccc(/C=C/C(=O)O)cc2)cc1`, the melting point fell in the range of 204 to 207 °C.
As for `COc1cccc(-c2cc(=O)c3ccccc3[nH]2)c1SCc1ccccc1`, the figure is above 250 °C.
Compound `O=C(O)C1=Cc2cc(C3CCCCC3)ccc2CC1` had a melting point of 179 to 180 °C.
Under `CN(CC(=O)O)S(=O)(=O)c1csc2ccccc12` stands 139 to 140 °C; under `CC(=O)Nc1cccc2c1C(=O)c1c-2n[nH]c1-c1ccc(C(F)(F)F)cc1`, above 300 °C; under `CC(C)C1(C)NC(c2ncccc2C#N)=NC1=O` (stereo not given), 144 to 148 °C.
Under `COCCOC[C@H](CC1(C(=O)O)CCCC1)C(=O)OC(C)(C)C` stands 86 to 87 °C; under `CC1(C)CC2(CC(C)(C)N1O)NC(=O)N(CC1CO1)C2=O` (stereo not given), 154 °C; under `CC(=O)C1CCC2C3CC=C4CC(F)CCC4(C)C3CCC12C` (stereo not given), 166 to 167 °C.
Under `COc1cc(OCc2ccncc2)ccc1/C=C/c1cc(/C=C/c2cccc3[nH]ccc23)n[nH]1` stands 207 to 215 °C; under `COCCOc1ccc(CCCNS(=O)(=O)CCCc2ccccc2)c(Oc2ncc(C(F)(F)F)cc2Cl)c1`, 102 °C.
For the compound `OCCCc1ccc(SCc2coc(/C=C/c3ccccc3)n2)cc1`, the melting point was 91 to 92 °C.
`CC(C)(C#N)c1c(Cl)cc(-n2nc(C(=O)O)c(=O)[nH]c2=O)cc1Cl`: the melting point amounted to 157 °C.
As for `O=C(O)c1cn(-c2ccc(Cl)cc2)c2c(F)c(F)c(F)cc2c1=O`, the figure is 117 to 118 °C.
On to `COc1ccc(Br)cc1O`, for which the melting point was in the range of 62 to 64 °C.
Under `CCOC(=O)c1ccc(NC(=O)CCn2cnc3c(=O)[nH]cnc32)cc1` stands 265 to 269 °C; under `Cc1noc(-c2ccc(CN3C(=O)C4(COc5cc6c(cc54)OCCO6)c4ccccc43)cc2)n1` (stereo not given), 177 to 178 °C; under `COC(=O)CCN1CCC(=C2c3ccn(C)c3CCn3ncnc32)CC1`, 139 °C.
Under `CCOC(=O)c1cn(C2CC2)c2c(F)c(-c3cc(C)nc(C)c3)c(F)cc2c1=S` stands 194 to 195 °C.
As for `COc1cccc([C@H]2O[C@H](CC(=O)Nc3nc(C(=O)O)cs3)C(=O)N(CC(C)(C)CO)c3ccc(Cl)cc32)c1OC`, the figure is 277 to 278 °C; as for `Cc1nc(N2N=C(c3ccc([N+](=O)[O-])cc3)c3cc4c(cc3CC2C)OCO4)cs1` (stereo not given), 178 to 190 °C; as for `COn1c(C)nn(-c2cc(F)c(C#N)cc2Cl)c1=O`, 102 °C.
As to `COc1cc(C(=O)N2CCC(N3CCC(Oc4ccc(F)c(F)c4)CC3)C2)ccc1N` (stereo not given), the melting point was 138 to 139 °C.
Under `Cc1c(Cl)cc(O)cc1Cl` stands 92 to 93 °C.
As for `Oc1ccc(OCCn2nc3c(n2)CCCC3)cc1`, the figure is 93 °C; as for `CC(C)(C)CNC(=O)C1=C(C(=O)Nc2cc(OC3CCCC3)c(Cl)cc2F)CCCC1`, 173 to 175 °C; as for `Cn1nc(Nc2cc(-c3ccc4c(c3)NC(=O)C4)cn3ccnc23)cc1C(C)(C)O`, 180 to 182 °C.
As for `COc1ccc2c(c1)CC(NC(C)=O)CC2` (stereo not given), the melting point fell in the range of 105 to 108 °C.
For `CC(C#N)c1ccc(Cl)nn1` (stereo not given), the melting point is 65 °C.
Turning to `CCOc1ccc(-c2nc(OC)ccc2N2CCC(c3ccc(OC)cc3)N(C)CC2)cc1` (stereo not given), the melting point was 103 to 107 °C.
As for `CCCC(C(C)=CC(CNC(=O)Cc1cccnc1)=NO)[N+](=O)[O-]` (stereo not given), the figure is 128 to 129 °C; as for `O=S(=O)(c1ccc(Cl)cc1)C(c1ccc(C2OCCO2)cn1)c1cc(F)ccc1F` (stereo not given), 167 to 168 °C.
`CNC(=O)[C@H](Cc1ccc(OC(C)C)cc1)NC(=O)[C@@H](N)CC(C)C` had a melting point of 148 to 160 °C.
`O=C1c2cccnc2N(N2CCCCC2)C2=NCCN12` had a melting point of 206 to 207 °C.
Under `CC(=O)N(C)C1(c2ccccc2)CCN(Cc2ccccc2)CC1` stands 104 °C.
As for `COc1cc(F)ccc1-c1ccc(S(=O)(=O)N2c3ccccc3CC2C(=O)NCc2ccccc2N)cc1` (stereo not given), the figure is 92 to 97 °C; as for `CSC1c2ccccc2COc2ccc(C(=O)O)cc21` (stereo not given), 198 to 200 °C; as for `COc1cc(Cl)c2c(c1)NC(=O)C(C)(c1ccc(Br)cc1)C2=O` (stereo not given), 239 to 240 °C.
As for `Cc1cccc(Nc2ncnc3ccc(OCCBr)cc23)c1`, the figure is 129 to 135 °C; as for `FC(F)(F)Oc1ccc(Nc2cc(-n3ccc(C(F)(F)F)n3)c3ccccc3n2)cc1`, 128 to 130 °C.
On to `Cn1c(C(F)(F)F)c(Cl)c(=O)n(-c2c(F)ccc3nc(Cl)sc23)c1=O`, for which the melting point was 81 to 83 °C.
Under `C[C@H](O)c1ccccc1S(=O)(=O)c1ccc(/C=C/c2ccc(F)cc2)cc1` stands 75 °C; under `COc1ccc2cnc(Cl)nc2c1C(C)C`, 135 to 137 °C; under `ClCCN(CCCl)CCOc1cccc2c(Cl)c3ccccc3nc12`, 105 to 106 °C.
Under `Cc1ccc2c(c1)C=Cc1cc(C)ccc1C2c1cn(Cc2nc(C(=O)O)cs2)c(=O)[nH]c1=S` stands 200 to 205 °C; under `O=C(O)C1=CSC2C(=CC3=CN4CCCCCC4N3)C(=O)N12` (stereo not given), above 250 °C; under `CCCc1c(SCCCOc2ccc3c(=O)cc(C(=O)OCC)oc3c2CCC)ccc(C(C)=O)c1N`, 103 to 104 °C.
As for `COc1ccc(-c2nc(C(=O)O)cc(Cl)c2Cl)cc1`, the figure is 164 to 181 °C.
Regarding `Cn1nc(-c2nc(C#N)c(C#N)nc2-c2ccccc2)ccc1=O`, the melting point lay within 210 to 212 °C.
In the case of `O=C(O)CCc1cnoc1-c1cc(Cl)c(Cl)s1`, the melting point is 142 to 143 °C.
Under `CC(=O)N1CCc2cc(O)ccc2C1` stands 135 to 136 °C.
Under `CCOC(=O)C1=C(C)NC(=S)N(C(=O)OCC)C1c1ccccc1OC` (stereo not given) stands 117 to 118 °C.
As for `CN(C)C(=O)c1cc(=O)c2ccsc2s1`, the figure is 126 °C; as for `CCCCOCCOc1ccc(-c2ccc3c(c2)C=C(C(=O)Nc2ccc(CCCn4cnnc4)cc2)CCN3CC(C)C)cc1`, 165 to 167 °C; as for `CCn1cnc2c(Nc3cccc(F)c3)nc(NCCO)nc21`, 184 °C.
On to `Cc1ccccc1-c1c(NC(=O)Nc2ccc(F)cc2F)cnc2cc3c(cc12)CCC3`, for which the melting point fell in the range of 252 to 254 °C.
The compound `Cn1nnc2c(N3CCN(Cc4ccccc4)CC3)ncnc21` gave a melting point of 91 to 92 °C.
Compound `CS(=O)(=O)c1ccc(-c2cc(C(=O)c3ccccc3)sc2N2CCOCC2)cc1` displayed a melting point of 173 °C.
On to `CC(=O)Nc1cc(Cl)ccc1CCOC(C)=O`, for which the melting point was found to be 129 °C.
As for `O=C(C[C@@H](CCCC1CCCCC1)c1nc(CNC2CCCC2)co1)NO`, the figure is 124 to 127 °C; as for `Cc1ccc2cccc(OCc3c(C)ccc(N)c3C)c2n1`, 204 to 205 °C.
In the case of `O=C1NC(C(=O)NCCO[N+](=O)[O-])C(c2cccs2)S1` (stereo not given), the melting point lay within 120 to 122 °C.
Under `O/N=C(\Cl)c1cccc(Cl)c1` stands 58 to 60 °C.
As to `COC(=O)Cc1cccc(CCC(CO)n2cnc(C(N)=O)c2)c1` (stereo not given), the melting point was 138 to 141 °C.
For `CC(=O)SC(CC(=O)c1ccccc1)C(=O)O` (stereo not given), the melting point came out at 90 °C.
The compound `CCNCCC(=O)Nc1ccc2c(c1)C(=O)c1cc(NC(=O)CCNCC)ccc1C2=O` returned a melting point of 181 °C.
As for `CCOP(=O)(Cc1ccc(C(=O)Nc2ccccc2C(=O)O)cc1)OCC`, the melting point is 171 to 172 °C.
